Source: article PMC5028181 (PLoS ONE, 2016)

System: T1, BmObc1 (oxalate biosynthetic component 1; His-BmObc1)
T1 construct: gene obc1
Assay type: biochemical, Burkholderia mallei

For `CCC(=O)SCCNC(=O)CCNC(=O)[C@H](O)C(C)(C)COP(=O)(O)OP(=O)(O)OC[C@H]1O[C@@H](n2cnc3c(N)ncnc32)[C@H](O)[C@@H]1OP(=O)(O)O` [propionyl-CoA], which Km is on record?
The Km was 104 ± 12.7 µM.

For `CC(=O)SCCNC(=O)CCNC(=O)[C@H](O)C(C)(C)COP(=O)(O)OP(=O)(O)OC[C@H]1O[C@@H](n2cnc3c(N)ncnc32)[C@H](O)[C@@H]1OP(=O)(O)O` [acetyl-CoA], which Km is on record?
Its Km is 26.8 ± 2.3 µM.

For `O=C(O)CC(=O)C(=O)O` [oxaloacetate], which Km is on record?
The Km was 94.3 ± 9.2 µM.
